# Experimental data from patent publication US7678918B2, “Intermediates for imidazonaphthyridines” (3M Innovative Properties Company, priority 1997, dated 2010).
# Experiments:
# [1] = test system: IFN; experiment: Cytokine Induction in Human Cells: interferon (IFN) secreted by PBMCs, A549/encephalomyocarditis bioassay; format: cell-based; details: 18 to 24 hours; note: call rule not given here
# Method in brief: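 Human PBMCs from healthy donors at 1.5-2×10^6 cells/mL in RPMI with 10% FBS, exposed to compounds (typically 0.1 to 100 μM, ≤1% DMSO) for 18 to 24 h at 37° C. Secreted IFN measured by A549/encephalomyocarditis virus cytopathic-effect bioassay, in alpha reference units/mL against NIH human leukocyte IFN standard.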
# [2] = test system: TNF; experiment: Cytokine Induction in Human Cells: tumor necrosis factor (TNF) secreted by PBMCs, ELISA; format: cell-based; details: 18 to 24 hours; note: call rule not given here
# Method in brief: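 Human donor PBMCs at 1.5-2×10^6 cells/mL in RPMI with 10% FBS were exposed to compound, generally at 0.1 to 100 μM (≤1% DMSO final), for 18 to 24 h at 37 °C. Secreted TNF in supernatant was measured by ELISA and reported as pg/mL.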
compound,measurement,setting,value
"CC(C)(C)OC(=O)NCCCCNc1c([N+](=O)[O-])cnc2cccnc12 [Example 41, 1,1-Dimethylethyl N-{4-[(3-Nitro[1,5]naphthyridin-4-yl)amino]butyl}carbamate]",melting point,,137 to 138 °C
"CCCCc1nc2cnc3cccnc3c2n1CCCCNC(=O)OC(C)(C)C [Example 43, 1,1-Dimethylethyl N-[4-(2-Butyl-1H-imidazo[4,5-c][1,5]naphthyridin-1-yl)butyl]carbamate]",melting point,,96 to 98 °C
"CCCCc1nc2c(N)nc3cccnc3c2n1CCCCNC(=O)OC(C)(C)C [Example 45, 1,1-Dimethylethyl N-[4-(4-Amino-2-butyl-1H-imidazo[4,5-c][1,5]naphthyridin-1-yl)butyl]carbamate]",IFN induction,[1]; Dose Concentration 0.1 μM,+
same,IFN induction,[1]; Dose Concentration 1.0 μM,+
same,IFN induction,[1]; Dose Concentration 10.0 μM,+
same,IFN induction,[1]; Dose Concentration 100.0 μM,−
same,melting point,,148.5 to 149.5 °C
same,TNF induction,[2]; Dose Concentration 0.1 μM,−
same,TNF induction,[2]; Dose Concentration 1.0 μM,+
same,TNF induction,[2]; Dose Concentration 10.0 μM,+
same,TNF induction,[2]; Dose Concentration 100.0 μM,−
"CCCCc1nc2c(N)nc3cccnc3c2n1CCCCN [Example 46, 4-(4-Amino-2-butyl-1H-imidazo[4,5-c][1,5]naphthyridin-1-yl)butaneamine]",IFN induction,[1]; Dose Concentration 0.1 μM,+
same,IFN induction,[1]; Dose Concentration 1.0 μM,+
same,IFN induction,[1]; Dose Concentration 10.0 μM,+
same,melting point,,212 to 213 °C
same,TNF induction,[2]; Dose Concentration 0.1 μM,+
same,TNF induction,[2]; Dose Concentration 1.0 μM,+
same,TNF induction,[2]; Dose Concentration 10.0 μM,+
same,TNF induction,[2]; Dose Concentration 100.0 μM,+
"CC(C)(O)CNc1c([N+](=O)[O-])cnc2cccnc12 [Example 59, 1,1-Dimethyl-2-[(3-nitro[1,5]naphthyridin-4-yl)amino]ethanol]",melting point,,184.5 to 186 °C
"CCCCc1nc2c(N)nc3cccnc3c2n1CC(C)(C)O [Example 62, 1,1-Dimethyl-2-(4-amino-2-butyl[1,5]napthyridin-1-yl)ethanol]",IFN induction,[1]; Dose Concentration 0.1 μM,+
same,IFN induction,[1]; Dose Concentration 1.0 μM,+
same,IFN induction,[1]; Dose Concentration 10.0 μM,+
same,IFN induction,[1]; Dose Concentration 100.0 μM,+
same,melting point,,177 to 179 °C
same,TNF induction,[2]; Dose Concentration 0.1 μM,+
same,TNF induction,[2]; Dose Concentration 1.0 μM,+
same,TNF induction,[2]; Dose Concentration 10.0 μM,+
same,TNF induction,[2]; Dose Concentration 100.0 μM,+
"CC(C)(O)Cn1c(Cc2ccccc2)nc2c(N)nc3cccnc3c21 [Example 65, 1,1-Dimethyl-2-(4-amino-2-phenylmethyl[1,5]napthyridin-1-yl)ethanol]",IFN induction,[1]; Dose Concentration 0.1 μM,+
same,IFN induction,[1]; Dose Concentration 1.0 μM,+
same,IFN induction,[1]; Dose Concentration 10.0 μM,+
same,IFN induction,[1]; Dose Concentration 100.0 μM,+
same,melting point,,211 to 213 °C
same,TNF induction,[2]; Dose Concentration 0.1 μM,−
same,TNF induction,[2]; Dose Concentration 1.0 μM,+
same,TNF induction,[2]; Dose Concentration 10.0 μM,+
same,TNF induction,[2]; Dose Concentration 100.0 μM,+
"O=[N+]([O-])c1cnc2cccnc2c1NCc1ccccc1 [Example 66, N-Phenylmethyl-3-nitro[1,5]naphthyridin-4-amine]",melting point,,127 to 129 °C
"CCOCc1nc2cnc3cccnc3c2n1Cc1ccccc1 [Example 68, 2-Ethoxymethyl-1-phenylmethyl-1H-imidazo[4,5-c][1,5]naphthyridine]",melting point,,118 to 119 °C
"CCOCc1nc2c(N)nc3cccnc3c2n1Cc1ccccc1 [Example 70, 2-Ethoxymethyl-1-phenylmethyl-1H-imidazo[4,5-c][1,5]naphthyridin-4-amine]",IFN induction,[1]; Dose Concentration 0.1 μM,+
same,IFN induction,[1]; Dose Concentration 1.0 μM,+
same,IFN induction,[1]; Dose Concentration 10.0 μM,+
same,IFN induction,[1]; Dose Concentration 100.0 μM,−
same,melting point,,173 to 174 °C
same,TNF induction,[2]; Dose Concentration 0.1 μM,−
same,TNF induction,[2]; Dose Concentration 1.0 μM,+
same,TNF induction,[2]; Dose Concentration 10.0 μM,+
same,TNF induction,[2]; Dose Concentration 100.0 μM,−
"CC(C)OCCCNc1c([N+](=O)[O-])cnc2cccnc12 [Example 71, N^4-(3-Isopropoxypropyl)-3-nitro[1,5]naphthyridin-4-amine]",melting point,,62.5 to 63.5 °C
"CCCCc1nc2c(N)nc3cccnc3c2n1CCCOC(C)C [Example 75, 2-Butyl-1-(3-isopropoxypropyl)-1H-imidazo[4,5-c][1,5]naphthyridine-4-amine]",IFN induction,[1]; Dose Concentration 0.1 μM,−
same,IFN induction,[1]; Dose Concentration 1.0 μM,+
same,IFN induction,[1]; Dose Concentration 10.0 μM,+
same,IFN induction,[1]; Dose Concentration 100.0 μM,+
same,melting point,,174 to 175 °C
same,TNF induction,[2]; Dose Concentration 0.1 μM,−
same,TNF induction,[2]; Dose Concentration 1.0 μM,−
same,TNF induction,[2]; Dose Concentration 10.0 μM,+
same,TNF induction,[2]; Dose Concentration 100.0 μM,−
"CCCCOCCCn1c(CCCC)nc2cnc3cccnc3c21 [Example 78, 1-(3-Butoxypropyl)-2-butyl-1H-imidazo[4,5-c][1,5]naphthyridine]",melting point,,56.5 to 57.5 °C
"CCCCOCCCn1c(CCCC)nc2c(N)nc3cccnc3c21 [Example 80, 1-(3-Butoxypropyl)-2-butyl-1H-imidazo[4,5-c][1,5]naphthyridin-4-amine]",IFN induction,[1]; Dose Concentration 0.1 μM,−
same,IFN induction,[1]; Dose Concentration 1.0 μM,+
same,IFN induction,[1]; Dose Concentration 10.0 μM,+
same,IFN induction,[1]; Dose Concentration 100.0 μM,−
same,melting point,,101 to 101.5 °C
same,TNF induction,[2]; Dose Concentration 0.1 μM,−
same,TNF induction,[2]; Dose Concentration 1.0 μM,−
same,TNF induction,[2]; Dose Concentration 10.0 μM,+
same,TNF induction,[2]; Dose Concentration 100.0 μM,−
"O=[N+]([O-])c1cnc2cccnc2c1NCCOc1ccccc1 [Example 81, N^4-(2-Phenoxyethyl)-3-nitro[1,5]naphthyridin-4-amine]",melting point,,107 to 108 °C
"CCCCc1nc2cnc3cccnc3c2n1CCOc1ccccc1 [Example 83, 2-(2-Butyl-1H-imidazo[4,5-c][1,5]naphthyridin-1-yl)ethyl Phenyl Ether]",melting point,,150 to 150.5 °C
"CCCCc1nc2c(N)nc3cccnc3c2n1CCOc1ccccc1 [Example 85, 2-Butyl-1-(2-phenoxyethyl)-1H-imidazo[4,5-c][1,5]naphthyridin-4-amine]",IFN induction,[1]; Dose Concentration 0.1 μM,+
same,IFN induction,[1]; Dose Concentration 1.0 μM,+
same,IFN induction,[1]; Dose Concentration 10.0 μM,+
same,IFN induction,[1]; Dose Concentration 100.0 μM,−
same,melting point,,159 to 159.2 °C
same,TNF induction,[2]; Dose Concentration 0.1 μM,−
same,TNF induction,[2]; Dose Concentration 1.0 μM,+
same,TNF induction,[2]; Dose Concentration 10.0 μM,+
same,TNF induction,[2]; Dose Concentration 100.0 μM,−
"CC(C)(C)OC(=O)NCCNc1c([N+](=O)[O-])cnc2cccnc12 [Example 86, 1,1-Dimethylethyl N-{2-[(3-Nitro[1,5]naphthyridin-4-yl)amino]ethyl}carbamate]",melting point,,149 to 151 °C
"CCCCc1nc2c(N)nc3cccnc3c2n1CCNC(=O)OC(C)(C)C [Example 90, 1,1-Dimethylethyl N-[2-(4-Amino-2-butyl-1H-imidazo[4,5-c][1,5]naphthyridin-1-yl)ethyl]carbamate]",IFN induction,[1]; Dose Concentration 0.1 μM,±
same,IFN induction,[1]; Dose Concentration 1.0 μM,+
same,IFN induction,[1]; Dose Concentration 10.0 μM,+
same,IFN induction,[1]; Dose Concentration 100.0 μM,+
same,melting point,,118 to 120 °C
same,TNF induction,[2]; Dose Concentration 0.1 μM,−
same,TNF induction,[2]; Dose Concentration 1.0 μM,−
same,TNF induction,[2]; Dose Concentration 10.0 μM,+
same,TNF induction,[2]; Dose Concentration 100.0 μM,+
"CCCCc1nc2c(N)nc3cccnc3c2n1CCN [Example 91, 2-(4-Amino-2-butyl-1H-imidazo[4,5-c][1,5]naphthyridin-1-yl)ethaneamine]",IFN induction,[1]; Dose Concentration 0.1 μM,+
same,IFN induction,[1]; Dose Concentration 1.0 μM,+
same,IFN induction,[1]; Dose Concentration 10.0 μM,+
same,IFN induction,[1]; Dose Concentration 100.0 μM,+
same,melting point,,175 to 176 °C
same,TNF induction,[2]; Dose Concentration 0.1 μM,+
same,TNF induction,[2]; Dose Concentration 1.0 μM,+
same,TNF induction,[2]; Dose Concentration 10.0 μM,+
same,TNF induction,[2]; Dose Concentration 100.0 μM,+
"CCCCc1nc2c(N)nc3cccnc3c2n1CCNC(C)=O [Example 92, N^1-[2-(4-Amino-2-butyl-1H-imidazo[4,5-c][1,5]naphthyridin-1-yl)ethyl]acetamide]",IFN induction,[1]; Dose Concentration 0.1 μM,±
same,IFN induction,[1]; Dose Concentration 1.0 μM,+
same,IFN induction,[1]; Dose Concentration 10.0 μM,+
same,IFN induction,[1]; Dose Concentration 100.0 μM,+
same,melting point,,228 to 230 °C
same,TNF induction,[2]; Dose Concentration 0.1 μM,−
same,TNF induction,[2]; Dose Concentration 1.0 μM,+
same,TNF induction,[2]; Dose Concentration 10.0 μM,+
same,TNF induction,[2]; Dose Concentration 100.0 μM,+
"C/C=C/C(=O)NCCn1c(CCCC)nc2c(N)nc3cccnc3c21 [Example 93, N^1-[2-(4-Amino-2-butyl-1H-imidazo[4,5-c][1,5]naphthyridin-1-yl)ethyl]-(E)-2-butenamide]",IFN induction,[1]; Dose Concentration 0.1 μM,−
same,IFN induction,[1]; Dose Concentration 1.0 μM,+
same,IFN induction,[1]; Dose Concentration 10.0 μM,+
same,IFN induction,[1]; Dose Concentration 100.0 μM,+
same,melting point,,198 to 200 °C
same,TNF induction,[2]; Dose Concentration 0.1 μM,−
same,TNF induction,[2]; Dose Concentration 1.0 μM,+
same,TNF induction,[2]; Dose Concentration 10.0 μM,+
same,TNF induction,[2]; Dose Concentration 100.0 μM,+
"CCCCc1nc2c(N)nc3cccnc3c2n1CCNC(=O)C1CCCCC1 [Example 94, N^1-[2-(4-Amino-2-butyl-1H-imidazo[4,5-c][1,5]naphthyridin-1-yl)ethyl]-1-cyclohexanecarboxamide]",IFN induction,[1]; Dose Concentration 0.1 μM,−
same,IFN induction,[1]; Dose Concentration 1.0 μM,+
same,IFN induction,[1]; Dose Concentration 10.0 μM,+
same,IFN induction,[1]; Dose Concentration 100.0 μM,+
same,melting point,,188 to 190 °C
same,TNF induction,[2]; Dose Concentration 0.1 μM,−
same,TNF induction,[2]; Dose Concentration 1.0 μM,+
same,TNF induction,[2]; Dose Concentration 10.0 μM,+
same,TNF induction,[2]; Dose Concentration 100.0 μM,+
"CCCCc1nc2c(N)nc3cccnc3c2n1CCNC(=O)c1cc(C(C)(C)C)c(O)c(C(C)(C)C)c1 [Example 95, N^1-[2-(4-amino-2-butyl-1H-imidazo[4,5-c][1,5]naphthyridin-1-yl)ethyl]-3,5-di-(1,1-dimethylethyl)-4-hydroxybenzamide]",IFN induction,[1]; Dose Concentration 0.1 μM,±
same,IFN induction,[1]; Dose Concentration 1.0 μM,+
same,IFN induction,[1]; Dose Concentration 10.0 μM,+
same,IFN induction,[1]; Dose Concentration 100.0 μM,+
same,melting point,,248 to 250 °C
same,TNF induction,[2]; Dose Concentration 0.1 μM,−
same,TNF induction,[2]; Dose Concentration 1.0 μM,−
same,TNF induction,[2]; Dose Concentration 10.0 μM,+
same,TNF induction,[2]; Dose Concentration 100.0 μM,+
"CCCCc1nc2c(N)nc3cccnc3c2n1CCNC(=O)C1CCC(=O)O1 (stereo not shown) [Example 97, N-[2-(4-Amino-2-butyl-1H-imidazo[4,5-c][1,5]naphthyridin-1-yl)ethyl]-5-oxotetrahydro-2-furancarboxamide]",IFN induction,[1]; Dose Concentration 0.1 μM,−
same,IFN induction,[1]; Dose Concentration 1.0 μM,−
same,IFN induction,[1]; Dose Concentration 10.0 μM,+
same,IFN induction,[1]; Dose Concentration 100.0 μM,+
same,melting point,,153 to 154 °C
same,TNF induction,[2]; Dose Concentration 0.1 μM,−
same,TNF induction,[2]; Dose Concentration 1.0 μM,−
same,TNF induction,[2]; Dose Concentration 10.0 μM,+
same,TNF induction,[2]; Dose Concentration 100.0 μM,+
CCCCc1nc2c(N)nc3cccnc3c2n1CCNC(=O)C1CCC(=O)N1 (stereo not shown) [Example 213],melting point,,135 to 138 °C
